# Test results from patent US20250027086A1, “COMPOSITIONS AND METHODS FOR TREATMENT OF CANCERS USING MODIFIED siRNA-GEM AGENTS” (Sirnaomics, Inc., priority 2022, published 2025).
# Columns and labels:
# MDA-MB231 cells = assay: Cell viability in triple negative breast cancer cell line MDA-MB231; format: cell-based; conditions: MDA-MB231, 400 cells per well; FIG. 13(a)
# Experimental: (§1) MIA PaCa-2, […], LS180, HT1376, HT29, H358, H1299, OVCAR-3, HTB-9 and Panc 10.05 cells were obtained from ATCC (Rockville, MD). MiaPaCa cells were cultured in DMEM medium supplemented with 10% FBS. H358, H1299, HTB-9, N87 and Panc 10.05 cells were cultured in DMEM/10% FBS; LS180 and HT1376 in EMEM/10% FBS; HT29 cells in McCoy5A/10% FBS; OVCAR-3 cells were incubated in RPMI/20% FBS. All cells were maintained at 37 degrees C. in an atmosphere containing 5% CO^2.
# The day before transfection, cells were seeded in a 384-well plate at an optimal density of between 300 and 800 cells/well. […]
# Ninety-six hours following the addition of GEM or transfection mixtures, the number of viable cells was determined with CellTiter-Glo®-2.0 reagent (Promega, Madison, WI) by measuring luminescent signal using a Cytation 5 plate reader (BioTek Inc, Winooski, VT). […]
# Using the same or similar experimental condition as are described above in Example 1, the effects of (i) PGN7 (SEQ. ID No. 9-10) plus a non-signaling oligonucleotide (“NS”), (ii) BCLxL #5 (SEQ. ID No. 14)+NS, and (iii) PGN7 and BCLxL #5 in combination were evaluated and are shown in triple negative breast cancer (MDA-MB231) and ovarian cancer (OVCAR3) cell lines in FIGS. 13 (a)-(b). […]
# [1] = system: pancreatic, lung and colon cancer cell lines; assay: Cell viability in pancreatic, lung and colon cancer cell lines; format: cell-based; conditions: single siRNA against non-silencing control; pancreatic, lung, colon; FIG. 6
# Experimental: as §1
# The day before transfection, cells were seeded in a 384-well plate at an optimal density of between 300 and 800 cells/well. The next day, ten 3-fold serial dilutions of single, modified-backbone siRNAs or PGN6/PGN7 siRNA and Gemcitabine (GEM) mixed with siRNAs: Wee1 #7, KRAS #1, MCL1 #3 or DM2-P47 siRNAs at 1:1 ratio were prepared and combined with diluted Lipofectamine RNAiMAX (Life Technologies, Carlsbad, CA). Within 20 minutes, 10 μl of the transfection mixtures were added to the cells in a 40 μL medium. The final concentrations of siRNAs or Gemcitabine in the wells ranged from 100 nM to 0.002 nM.
# Ninety-six hours following the addition of GEM or transfection mixtures, the number of viable cells was determined with CellTiter-Glo®-2.0 reagent (Promega, Madison, WI) by measuring luminescent signal using a Cytation 5 plate reader (BioTek Inc, Winooski, VT). The treatment group (n=4) mean (±SD) was compared to those of non-treated controls and were reported as relative cell viability.
# Using the same experimental conditions as are described above in Example 1, the efficacy on cell viability was evaluated for PGN6 (SEQ. ID Nos. 7-8), with and without lipofentamine (“lipo”) in three types of cancer cell lines. FIG. 3 (a)-(c) show the effects of PGN6, with and without lipo on cell viability at increasing siRNA levels in pancreatic cancer cell lines. FIG. 4 (a)-(b) similarly show the effects of these variants on cell viability in lung cancer cell lines; FIG. 5 (a)-(b) show the effects of these variants on cell viability in colon cancer cell lines. All data are shown as mean±SD. […]
# Using the same experimental conditions as are described above in Example 1, the efficacy of STD1 (SEQ. ID Nos. 1-2), PGN6 (SEQ. ID Nos. 7-8) and PGN7 (SEQ. ID Nos. 9-10) were evaluated in three types of cancer cell lines. […]
# Using the same experimental conditions as are described above in Example 1, the efficacy of PGN7 (SEQ. ID No. 9-10) alone and its combination with WEE1 #7 (SEQ. ID No. 13) was evaluated in three types of cancer cell lines. […]
# Using the same experimental conditions as are described above in Example 1, the efficacy of PGN7 (SEQ. ID No. 9-10) and the combination of BCLxL #5 (SEQ. ID No. 14) and PGN7 was evaluated in three types of cancer cell lines. […]
substance,measurement,setting,value
PGN7: modified siRNA-GEM RNAi agent (SEQ. ID No. 9-10): sense 5′-AAGAAAgAgau[GEM]uGuAu[GEM]AAu-3′; antisense 5′-AuUGAuACAGAuCuCuUuCuU[GEM][GEM]dTdT-3′ (sense AAGAAAGAGATCTGTATCAAT; antisense ATTGATACAGATCTCTTTCTTCCTT; GEM modifications; 2'-modified bases; dTdT overhang; modified_base 1 OTHER; 2'-O-methyl modified nucleotide; modified_base 2 OTHER; modified_base 3 OTHER; modified_base 4 OTHER; modified_base 5 OTHER; modified_base 6 OTHER; modified_base 7 OTHER; 2'-fluoro modified nucleotide; modified_b; 2'-O-me),IC50,MDA-MB231 cells,1.1 nM
same,reduction of cell viability,[1],effective in reducing cell viability
